In PMC6880814, “Skeletocutins M–Q: biologically active compounds from the fruiting bodies of the basidiomycete Skeletocutis sp. collected in Africa” (Beilstein Journal of Organic Chemistry, 2019):
Converted amounts (≈) assume the structure as drawn. “And” between values parts separate entries of the source, which are not always exact repeats. Equal entries are not always repeated. “Also recorded” adds a separate entry of the source.

Legend:
S. aureus DSM1104 = assay: Inhibition of biofilm formation; assay type: cell-based, Staphylococcus aureus; parameters: biofilm inhibition results from plate reader: reference not given here; conditions: for biofilm inhibition results from plate reader: raw reading, replications 1-3; for inhibition of biofilm formation (in words): S. aureus
Description: The assay was performed in Falcon® 96-well flat bottom plates as previously described. […] Methanol was used as negative control, while tetracycline was used as positive control. All experiments were made in triplicates.

[1] = test system: surface-bound aminopeptidases of KB3.1 cells; assay: Inhibition of ʟ-Leu-AMC hydrolysis (leucine aminopeptidases); assay type: cell-based; conditions: for IC50, inhibition of ʟ-Leu-AMC hydrolysis: KB3.1 cells
Description: Hydrolysis of ʟ-Leu-AMC by the surface-bound aminopeptidases of KB3.1 cells was assayed based on the method from Weber and co-workers with slight modifications. KB3.1 cells were grown as monolayer cultures in Dulbecco's modified Eagle's medium (DMEM) containing 10% fetal calf serum at 37 °C in 24-well multidishes. After three days, the confluent monolayers were washed twice with phosphate buffered saline (PBS), and the reaction mixture (450 µL Hanks' buffer at pH 7.2 containing 50 or 100 µM substrate ʟ-Leu-AMC, compounds dissolved in 50 µL DMSO) was added. After being incubated at 23 °C for 30 min, 1 mL cold 0.2 M glycine buffer at pH 10.5 was added. The amount of hydrolyzed 7-amino-4-methylcoumarin (AMC) was measured in a Tecan Infinite M200 PRO fluorescence spectrophotometer (excitation and emission at λ = 365 and 440 nm, respectively). Bestatin [12] and DMSO were used as positive and negative control, respectively.

[2] = test system: leucine aminopeptidase in HeLa S3 cells; parameters: method as in PMID 1620745; conditions: 50 μM substrate concentration; cited from earlier work
[3] = test system: several Gram-positive bacteria (Bacillus subtilis, S. aureus, MRSA, Micrococcus luteus); parameters: method as in PMID 31310114; conditions: B. subtilis, M. luteus; cited from earlier work
[4] = test system: surface-bound aminopeptidases of KB3.1 cells; assay: Inhibition of ʟ-Leu-AMC hydrolysis (leucine aminopeptidases); assay type: cell-based; conditions: at 50 and 110 µM substrate concentration

| Compound | biofilm inhibition results from plate reader (S. aureus DSM1104; 8 µg/ml) | biofilm inhibition results from plate reader (S. aureus DSM1104; 16 µg/ml) | biofilm inhibition results from plate reader (S. aureus DSM1104; 32 µg/ml) | biofilm inhibition results from plate reader (S. aureus DSM1104; 64 µg/ml) | biofilm inhibition results from plate reader (S. aureus DSM1104; 128 µg/ml) | biofilm inhibition results from plate reader (S. aureus DSM1104; 256 µg/ml) | IC50, inhibition of ʟ-Leu-AMC hydrolysis ([1]; ʟ-Leu-AMC (50 µM)) [µg/mL] | IC50, similar assay against HeLa S3 cells [2] [µg/mL] | activity against Gram-positive bacteria (in words) [3] | ʟ-Leu-AMC inhibition assay (in words) [1] | IC50, inhibition of ʟ-Leu-AMC hydrolysis ([1]; ʟ-Leu-AMC (100 µM)) [µg/mL] | IC50, inhibition of ʟ-Leu-AMC hydrolysis [4] [µg/mL] | inhibition of biofilm formation (in words) (S. aureus DSM1104) |
| --- | --- | --- | --- | --- | --- | --- | --- | --- | --- | --- | --- | --- | --- |
| CC1=C(CCCCCCCCCCCCCCCCCCCCC2=C(C)C(=O)OC2=O)C(=O)OC1=O [Compound 2, skeletocutin N] | 3.048 and 2.841 and 2.718 | 2.916 and 2.987 and 2.995 | 3.176 and 3.059 and 3.016 | 2.823 and 3.791 and 2.979 | 3.623 and 4.381 and 3.14 | 4.44 and 4.077 and 4.364 |  |  |  |  |  |  |  |
| CN(C)[C@@H]1C(O)=C(C(N)=O)C(=O)[C@@]2(O)C(O)=C3C(=O)c4c(O)cccc4[C@@](C)(O)[C@H]3C[C@@H]12 [Tetracycline, reference compound] |  |  | 1.107 and 1.315 and 1.404 and 1.155 and 0.918 and 0.791 | 0.885 and 0.917 and 0.836 and 0.83 and 0.627 and 0.95 | 0.622 and 0.527 and 0.478 and 0.693 and 0.655 and 0.765 | 0.462 and 0.414 and 0.487 and 0.644 and 0.444 and 0.498 |  |  |  |  |  |  |  |
| CC1=C(CCCCCCCCCCCCCCCCC2=C(C)C(=O)OC2=O)C(=O)OC1=O [Compound 6, tyromycin A] | 3.766 and 3.772 and 3.586 | 3.612 and 3.954 and 4.007 | 3.328 and 3.954 and 3.188 | 3.105 and 3.723 and 3.478 | 3.861 and 2.858 and 2.819 | 4.54 and 3.949 and 6 | 138.4 | 31 (≈ 69.4 µM) | active |  |  |  |  |
| CC1=C(CCCCCCCCCCCCCCCCCCC2=C(C)C(=O)OC2=O)C(=O)OC1=O [Compound 1, 1,18-bis[4′-methyl-2′,5′-dioxo-3′-furyl]octadecane] | 3.282 and 3.031 and 2.758 | 3.706 and 3.472 and 3.059 | 3.45 and 3.219 and 3.38 | 3.207 and 4.69 and 3.419 | 3.365 and 3.804 and 3.615 | 4.909 and 5.651 and 4.54 |  |  |  |  |  |  |  |
| CC1=C(CCCCCCCCCCCCCCCCC/C=C(\C(=O)O)C(CC(=O)O)C(=O)O)C(=O)OC1=O (stereo not drawn) [Compound 4, (Z)-21-(4’-methyl-2’,5’-dioxo-2’,5’-dihydrofuran-3’-yl)henicos-3-ene-1,2,3-tricarboxylic acid] | 4.243 and 3.452 and 3.554 | 4.47 and 3.878 and 4.114 | 4.702 and 3.439 and 4.271 | 3.957 and 3.887 and 3.524 | 4.03 and 4.115 and 4.224 | 6 and 5.066 and 4.841 | 71.1 |  |  | performed moderately | 102.3 |  |  |
| CC(C)C[C@H](NC(=O)[C@@H](O)[C@H](N)Cc1ccccc1)C(=O)O [Bestatin, reference compound] |  |  |  |  |  |  | 10.8 |  |  |  | 40.9 |  |  |
| CC1=C(CCCCCCCCCCCCCCCCCC/C=C(\CC(=O)O)C(=O)O)C(=O)OC1=O [Compound 3, (E)-2-(19-(4’-methyl-2’,5’-dioxo-2’,5’-dihydrofuran-3’-yl)nonadecylidene)butanedioic acid] | 2.88 and 3.631 and 3.132 | 2.837 and 3.385 and 3.2 | 2.875 and 3.534 and 3.458 | 3.373 and 3.63 and 3.041 | 3.752 and 3.854 and 3.496 | 1.742 and 2.419 and 2.26 | 89.6 |  |  | performed moderately | 130.4 | > 80 | moderately inhibited; also recorded: weakly inhibit |
| CC1=C(CCCCCCCCCCCCCCCCCCC(C(=O)O)C(CC(=O)O)C(=O)O)C(=O)OC1=O (stereo not drawn) [Compound 5, 21-(4’-methyl-2’,5’-dioxo-2’,5’-dihydrofuran-3’-yl)henicosane-1,2,3-tricarboxylic acid] | 3.444 and 2.956 and 3.704 | 3.633 and 3.438 and 3.879 | 4.452 and 3.838 and 3.757 | 3.708 and 3.627 and 3.623 | 3.871 and 3.836 and 3.597 | 3.822 and 3.87 and 3.988 | 153.2 |  |  |  | 225.3 | > 80 | weakly inhibit |
